Measurements: US11911386B2, “Methods of treating B-cell proliferative disorder” (BeiGene Switzerland GmbH, priority 2022, dated 2024)
“And” between values parts separate entries of the source, which are not always exact repeats. Identical values can stand only once. Like-named read-outs stand apart in the source and are kept apart here. Marks after values point to notes of the source that are not given here.

Columns and labels:
[1] = target: T1, P-glycoprotein (Homo sapiens, UniProt P08183); details: repeated dosing of zanubrutinib; cited from earlier work
T1 construct: endogenous in cells; host or cells: human subjects in vivo (clinical study)

[2] = Phase 1 DDI study: single-dose zanubrutinib PK alone and with steady-state rifabutin (NCT04470908); format: in vivo, human; details: for half-life: arithmetic mean (SD)
Excerpt: This study was designed, conducted, and monitored according to sponsor procedures, and complied with the ethical principles of Good Clinical Practice, International Council for Harmonisation of Technical Requirements for Pharmaceuticals for Human Use, the Declaration of Helsinki, and local regulatory requirements. All volunteers provided written, informed consent before study entry. Midlands Independent Review Board (MLIRB (now WCG IRB), Overland Park, Kansas) reviewed and approved the protocol at the respective study center.
Volunteers were screened for eligibility during the screening period (from day −28 through day −2). Those who met all the inclusion criteria and none of the exclusion criteria were admitted into the clinical research unit (CRU) on day −1 and confined to the CRU until discharge on day 13. […] Volunteers were discharged on day 13 after satisfactory completion of study-related procedures.
A single dose of rifabutin (300 mg) was given orally as 2×150 mg capsules with food on days 3-10 and in the fasted state on day 11.
Noncompartmental analysis was conducted using Phoenix® WinNonlin™ version 8.1 (Certara USA, Inc., Princeton, New Jersey, USA).
Protein precipitation was utilized to extract the analyte and internal standard from human plasma containing dipotassium ethylenediaminetetraacetic acid (K2EDTA) as an anticoagulant.
The geometric least squares mean (GLSM) and their ratios were obtained by taking the exponential of the corresponding estimates of LSM and their differences on the natural logarithm scale, where ratio=test/reference. Within-subject CV was calculated as 100×square root[exp(mean square error from the analysis model)−1].

[3] = test system: panel of 370 kinases; test: Kinome profiling at 100xIC50 (BTK) concentrations; format: biochemical; details: 100×IC50 (BTK) concentration
[4] = test system: relapsed/refractory CLL/SLL; details: for Duration of response events: death / Duration of response events: progressive disease / Duration of response: events: responders
[5] = Phase 1 DDI study: treatment-emergent adverse events; format: in vivo, human
Procedure: Safety was assessed by monitoring and recording of adverse events (AEs), serious adverse events (SAEs), clinical laboratory tests, physical examinations, and vital signs. […] A TEAE was defined as an AE that started during or after the first dose or started before the first dose and increased in severity after the first dose. AEs were classified based on MedDRA Version 24.0.
Safety and tolerability were assessed, when applicable, by incidence, severity, change from baseline values, and abnormal values for all relevant parameters such as AEs, laboratory parameters, vital signs, and physical examination.

[6] = 320 mg zanubrutinib + 300 mg rifabutin (test)
[7] = 320 mg zanubrutinib + 300 mg rifabutin, median (min-max)
[8] = IRC assessed, ITT, Table 15 data cut-off
[9] = IRC assessed, ITT, final analysis
[10] = IRC assessed, del(17p)/TP53 mutation, final analysis
[11] = investigator assessed, ITT, Table 15 data cut-off
[12] = investigator assessed, ITT, final analysis
[13] = investigator assessed, del(17p)/TP53 mutation, final analysis

T1 sequence (P08183 whole entry): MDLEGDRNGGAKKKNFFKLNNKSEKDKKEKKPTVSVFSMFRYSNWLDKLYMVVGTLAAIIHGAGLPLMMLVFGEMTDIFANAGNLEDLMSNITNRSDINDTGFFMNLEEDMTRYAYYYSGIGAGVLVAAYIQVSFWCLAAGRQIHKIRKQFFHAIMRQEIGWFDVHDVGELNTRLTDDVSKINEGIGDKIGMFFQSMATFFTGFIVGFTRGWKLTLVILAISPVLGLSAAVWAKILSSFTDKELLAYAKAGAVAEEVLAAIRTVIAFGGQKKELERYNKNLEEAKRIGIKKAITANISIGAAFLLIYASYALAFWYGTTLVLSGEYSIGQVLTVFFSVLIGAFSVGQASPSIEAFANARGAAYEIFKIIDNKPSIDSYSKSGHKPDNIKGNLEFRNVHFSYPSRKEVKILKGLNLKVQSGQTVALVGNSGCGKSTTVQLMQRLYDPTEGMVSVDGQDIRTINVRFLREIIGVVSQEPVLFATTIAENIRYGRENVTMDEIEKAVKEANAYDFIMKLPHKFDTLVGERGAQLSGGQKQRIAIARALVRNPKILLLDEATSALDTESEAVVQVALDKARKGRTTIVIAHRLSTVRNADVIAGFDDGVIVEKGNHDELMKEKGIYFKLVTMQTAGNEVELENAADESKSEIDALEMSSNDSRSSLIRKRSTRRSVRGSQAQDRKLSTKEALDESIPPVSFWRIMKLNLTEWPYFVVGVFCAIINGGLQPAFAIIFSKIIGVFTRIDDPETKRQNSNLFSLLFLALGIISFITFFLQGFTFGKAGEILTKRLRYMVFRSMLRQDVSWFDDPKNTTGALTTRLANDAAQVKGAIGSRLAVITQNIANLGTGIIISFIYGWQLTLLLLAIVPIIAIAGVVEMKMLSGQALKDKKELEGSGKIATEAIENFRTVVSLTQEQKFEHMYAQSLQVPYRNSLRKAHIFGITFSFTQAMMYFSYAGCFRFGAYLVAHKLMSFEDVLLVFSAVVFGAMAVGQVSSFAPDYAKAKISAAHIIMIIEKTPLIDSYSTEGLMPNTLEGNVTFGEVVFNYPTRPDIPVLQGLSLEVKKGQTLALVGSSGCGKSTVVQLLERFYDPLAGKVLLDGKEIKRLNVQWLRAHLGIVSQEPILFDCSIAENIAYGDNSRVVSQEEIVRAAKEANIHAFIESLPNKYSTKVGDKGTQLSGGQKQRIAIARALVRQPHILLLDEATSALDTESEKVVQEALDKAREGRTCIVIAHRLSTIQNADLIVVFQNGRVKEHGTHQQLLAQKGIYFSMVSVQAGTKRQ

C=CC(=O)N1CCC([C@@H]2CCNc3c(C(N)=O)c(-c4ccc(Oc5ccccc5)cc4)nn32)CC1 [zanubrutinib, (S)-7-(1-acryloylpiperidin-4-yl)-2-(4-phenoxyphenyl)-4,5,6,7-tetrahydropyrazolo[1,5-a]pyrimidine-3-carboxamide]
Mean increase of digoxin AUC0-t [1]: 11%
Mean increase of digoxin Cmax [1]: 34%
AUC0-t GLSM ([2]; 320 mg zanubrutinib (reference)): 2700 ng·h/mL
AUC0-t GLSM [2, 6]: 1530 ng·h/mL
Cmax GLSM [2, 6]: 253 ng/mL
Tlast [2, 7]: 36.0 (24.0-36.0) [13] h
Tmax [2, 7]: 2.0 h
Tlast ([2]; 320 mg zanubrutinib alone, median (min-max)): 36.0 (24.0-36.0) [13] h
AUC(0-t) ([2]; human, plasma, oral, 320 mg): 2700 ng·h/mL
Cmax ([2]; human, plasma, oral, 320 mg): 489 ng/mL
Vd/F ([2]; human, plasma, oral, 320 mg): 1080 L
AUC(0-inf) ([2]; human, plasma, oral, 320 mg zanubrutinib + 300 mg rifabutin (test), read-out: AUC0-∞ GLSM): 1560 ng·h/mL
half-life ([2]; human, plasma, oral, 320 mg zanubrutinib + 300 mg rifabutin): 7 h
AUC(0-inf) ([2]; human, plasma, oral, 320 mg zanubrutinib + 300 mg rifabutin, geometric mean (CV), read-out: AUC0-∞): 1590 ng·h/mL
AUC(0-inf) ([2]; human, plasma, oral, 320 mg, 320 mg zanubrutinib (reference), read-out: AUC0-∞ GLSM): 2780 ng·h/mL
half-life ([2]; human, plasma, oral, 320 mg, 320 mg zanubrutinib alone): 7.2 h
AUC(0-inf) ([2]; human, plasma, oral, 320 mg, 320 mg zanubrutinib alone, geometric mean (CV), read-out: AUC0-∞): 2780 ng·h/mL
Tmax ([2]; human, plasma, oral, 320 mg, read-out: Tmax): 1.5 h
AUC0-t within-subject CV ([2]; in vivo): 10.7%
AUC0-∞ within-subject CV ([2]; in vivo): 7.0%
Cmax within-subject CV ([2]; in vivo): 23.2%
Reduction in zanubrutinib exposure ([2]; with moderate CYP3A inducer, e.g. rifabutin): approximately 2 fold
GMR (exposure) ([2]; with vs without rifabutin): 57%
Off-target kinases inhibited [3]: seven
24-month event-free rate, duration of response (95% CI) ([4]; IRC assessed): 77.4 (71.0-82.5) %
Median duration of response (95% CI) ([4]; IRC assessed): had not yet been reached
Best response CR or CRi [4, 8]: 13 (4.0) n (%)
Best response PD [4, 8]: 3 (0.9) n (%)
Best response PR or nPR [4, 8]: 250 (76.5) n (%)
Best response PR-L [4, 8]: 33 (10.1) n (%)
Best response SD [4, 8]: 20 (6.1) n (%)
Discontinue prior to first assessment, NA or NE [4, 8]: 8 (2.4) n (%)
ORR (95% CI) [4, 8]: 80.4† (75.7, 84.6) %
Best response CR or CRi [4, 9]: 22 (6.7) n (%)
Best response PD [4, 9]: 3 (0.9) n (%)
Best response PR or nPR [4, 9]: 260 (79.5) n (%)
Best response PR-L [4, 9]: 18 (5.5) n (%)
Best response SD [4, 9]: 16 (4.9) n (%)
Discontinue prior to first assessment, NA or NE [4, 9]: 8 (2.4) n (%)
ORR [4, 9]: 86.2%
Best response CR or CRi [4, 10]: 6 (8.0) n (%)
Best response PD [4, 10]: 1 (1.3) n (%)
Best response PR or nPR [4, 10]: 58 (77.3) n (%)
Best response PR-L [4, 10]: 4 (5.3) n (%)
Best response SD [4, 10]: 3 (4.0) n (%)
Discontinue prior to first assessment, NA or NE [4, 10]: 3 (4.0) n (%)
ORR [4, 10]: 85.3%
Median duration of response (95% CI) ([4]; IRC assessed, listed as Zanubrutinib): NE (31.3, NE)
Duration of response events: death ([4]; IRC assessed): 20 (7.1) n (%)
Duration of response events: progressive disease ([4]; IRC assessed): 40 (14.2) n (%)
Duration of response: events ([4]; IRC assessed): 60 (21.3) n (%)
Treatment discontinuation due to progressive disease ([4]; ITT): 7.3%
PFS HR (95% CI), zanubrutinib over ibrutinib ([4]; accounting for drug interruption (ITT), independent review): 0.71 (0.53, 0.95)
PFS HR (95% CI), zanubrutinib over ibrutinib ([4]; accounting for drug interruption (ITT), investigator assessment): 0.71 (0.52, 0.96)
PFS HR (95% CI), zanubrutinib over ibrutinib ([4]; alternative censoring rules (ITT), independent review): 0.63 (0.48, 0.84)
PFS HR (95% CI), zanubrutinib over ibrutinib ([4]; alternative censoring rules (ITT), investigator assessment): 0.65 (0.49, 0.87)
Deaths ([4]; final analysis data cut-off): 48 n
PFS HR (95% CI), zanubrutinib over ibrutinib ([4]; in vivo): 0.62 (0.46, 0.84) and 0.62 (0.45, 0.84)
Treatment-failure event-free rate at 24 months ([4]; in vivo): 79.9%
24-month event-free rate, duration of response (95% CI) ([4]; investigator assessed): 79.5 (73.1-84.6) %
Median PFS ([4]; investigator assessed): not reached
Median duration of response (95% CI) ([4]; investigator assessed): had not yet been reached
PFS rate at 24 months ([4]; investigator assessed): 78.4%
Patients with disease progression or death ([4]; investigator assessed): 87 patients
Rate of partial response with lymphocytosis or better ([4]; investigator assessed, ITT): 89.9%
Best response CR or CRi [4, 11]: 16 (4.9) n (%)
Best response PD [4, 11]: 1 (0.3) n (%)
Best response PR or nPR [4, 11]: 244 (74.6) n (%)
Best response PR-L [4, 11]: 32 (9.8) n (%)
Best response SD [4, 11]: 25 (7.6) n (%)
Discontinue prior to first assessment, NA or NE [4, 11]: 9 (2.8) n (%)
ORR (95% CI) [4, 11]: 79.5* (74.7, 83.8) %
Best response CR or CRi [4, 12]: 23 (7.0) n (%)
Best response PD [4, 12]: 1 (0.3) n (%)
Best response PR or nPR [4, 12]: 250 (76.5) n (%)
Best response PR-L [4, 12]: 21 (6.4) n (%)
Best response SD [4, 12]: 23 (7.0) n (%)
Discontinue prior to first assessment, NA or NE [4, 12]: 9 (2.8) n (%)
ORR [4, 12]: 83.5%
Best response CR or CRi [4, 13]: 5 (6.7) n (%)
Best response PD [4, 13]: 0 n (%)
Best response PR or nPR [4, 13]: 56 (74.7) n (%)
Best response PR-L [4, 13]: 6 (8.0) n (%)
Best response SD [4, 13]: 5 (6.7) n (%)
Discontinue prior to first assessment, NA or NE [4, 13]: 3 (4.0) n (%)
ORR [4, 13]: 81.3%
Median duration of response (95% CI) ([4]; investigator assessed, listed as Zanubrutinib): NE (31.3, NE)
Duration of response events: death ([4]; investigator assessed): 20 (7.3) n (%)
Duration of response events: progressive disease ([4]; investigator assessed): 33 (12.1) n (%)
Duration of response: events ([4]; investigator assessed): 53 (19.4) n (%)
PD detected by decrease in platelet count ([4]; investigator assessment, ITT): 0
PD detected by increase in lymph nodes ([4]; investigator assessment, ITT): 40 (12.2)
PD detected by new enlarged lymph nodes ([4]; investigator assessment, ITT): 3 (0.9)
PD detected by new or increase in splenomegaly ([4]; investigator assessment, ITT): 8 (2.4)
PD detected by new symptomatic disease ([4]; investigator assessment, ITT): 3 (0.9)
Patients with disease transformation ([4]; investigator assessment, ITT): 5 (1.5)
Patients with progressive disease ([4]; investigator assessment, ITT): 54 (16.5)
PFS HR (95% CI), zanubrutinib over ibrutinib ([4]; per protocol population (N = 646), independent review): 0.64 (0.48, 0.85)
PFS HR (95% CI), zanubrutinib over ibrutinib ([4]; per protocol population (N = 646), investigator assessment): 0.64 (0.48, 0.85)
General disorders and administration site conditions TEAE ([5]; N = 13): 1 (7.7) n (%)
Overall TEAEs ([5]; N = 13): 1 (7.7) n (%)
Vessel puncture site hematoma TEAE ([5]; N = 13): 1 (7.7) n (%)
Tolerability ([5]; single 320 mg dose alone or with 300 mg rifabutin, healthy volunteers): well tolerated
